Test results as given in patent US9783551B2, “Pyranochromenyl phenol derivative, and pharmaceutical composition for treating metabolic syndrome or inflammatory disease” (GLACEUM, INC., priority 2013, dated 2017).

Key:
PTP1B = PTP1B (Homo sapiens (Human), UniProt P18031); test: Experiment of PTP1B inhibition (p-NPP dephosphorylation); assay type: biochemical; conditions: 2 mM p-NPP substrate, 30° C., 30 minutes
From the text: With respect to PTP1B, the degrees of inhibition (IC50 The half maximal inhibitory concentration) of glabridin, and compounds of Preparation Example 2 (Compound 1), Example 2 (Compound 3), Example 3 (Compound 4), Example 4 (Compound 5), Example 13 (Compound 14), Example 14 (Compound 15), Example 15 (Compound 16), Example 17 (Compound 18), Example 18 (Compound 19) and Example 20 (Compound 21) were compared to each other. For this purpose, the degree of inhibition activity for PTP1B was investigated by using 2 mM p-nitrophenyl phosphate (p-NPP) as a substrate to measure the dephosphorylation degree. First, PTP1B diluted with distilled water was reacted with 2 mM p-nitrophenyl phosphate {p-NPP, 0.1 M NaCl, 1 mM EDTA, 50 mM citrate pH 6.0, and 1 mM dithiothreitol (DTT)} and Compound 1 at various concentrations at 30° C. for 30 minutes, and then the reaction was terminated with a 1 N-sodium hydroxide (NaOH) solution. The absorbance of the samples thus prepared was measured to confirm the inhibition degree (IC50: The half maximal inhibitory concentration) for PTP1B activity according to the concentration of Compound 1. Even for glabridin, Compound 3, Compound 4, Compound 5, Compound 14, Compound 15, Compound 16, Compound 18, Compound 19, and Compound 21, the same measurement was performed.

DIO mice = test: Anti-obesity effect for DIO mice (body weight); assay type: in vivo, C57BL/6 mice; conditions: Mus musculus, 672 h; 4 weeks, 150 mg/kg, oral gavage once daily
Description: Five-week-old female C57BL/6 mice (Narabio Co., Ltd.) were purchased and fed with only high-fat diet for at least 10 weeks to produce diet induced obesity ([…]) mice. Samples were exactly taken from Preparation Example 1 (glabridin) and the compounds of Examples of the present invention (Compounds 1 to 5, 7, 9, 11, 14 to 16, 21, and 23) according to the administration dose and put into Falcon tubes, 3 ml of a 0.5% methyl cellulose aqueous solution was added thereto and a vortex mixer was used to primarily mix the ingredients in a soft manner, and then a homogenizer (30,000 rpm, Ultra-Turrax® T10 Basic, IKA) was used to treat the sample for 3 minutes while 1.5 ml of a 0.5% methyl cellulose aqueous solution was added thereto. The sample thus prepared was administered through oral gavage using a disposable plastic syringe once daily for 28 days (4 weeks). The body weight was measured twice a week while the DIO mice were bred in this manner. Based on the data thus calculated, the anti-obesity effect (%) was calculated according to the equation defined as follows. Anti-Obesity Effect={(Body weight of control group)−(Body weight of experimental group)}/(Body weight of control group)×100

db/db mice [1] = test: Anti-diabetic effects for db/db mice (glycosylated hemoglobin); assay type: in vivo, C57BLKS/J-db/db mice
Description: (§1) 5-week-old male C57BLKS/J-db/db mice (Central Lab. Animal Inc.) were purchased and acclimatized for 2 weeks, and then used in this experiment. Samples were exactly taken from the compounds prepared in Examples 4 and 15 of the present invention (Compounds 5 and 16) according to the administration dose and put into Falcon tubes, a 0.5% methyl cellulose aqueous solution stored refrigerated was placed at room temperature to allow the excipients to be warmed at room temperature, 16 ml of each of the excipients was added to a 50 ml Falcon tube, and a vortex mixer was used to primarily mix the ingredients in a soft manner, and then a suspension was obtained and homogenized by treating the sample for 3 minutes using a homogenizer (30,000 rpm, CPT-1600E, Kinemtica, Switzerland), and then ultrasonically treated for 30 minutes. The sample thus prepared was administered through oral gavage using a disposable plastic syringe equipped with a sonde once daily for 42 days (6 weeks).
The glycosylated hemoglobin (HbA1c) was measured while the db/db mice were bred. The gyclosylated hemoglobin was measured at 2 days prior to group separation, 4 weeks after administration, and 6 weeks after administration, and was measured by fasting the mice for 4 hours on the measurement date, collecting blood from the caudal vein before each material was administered, and using a device for measuring glycosylated hemoglobin (SD A1cCare, SD Biosensor, Inc., Korea).

db/db mice [2] = test: Liver histology (H&E, perilipin antibody) of db/db mice after 6 weeks; assay type: in vivo, C57BLKS/J-db/db mice; conditions: administered for 6 weeks, compared with control group
Description: as §1
The mouse to which Compound 16 had been administered for 6 weeks in this experiment was finally sacrificed and autopsied to collect a liver, the liver was excised and each stained with hematoxylin and eosin (H&E) and perilipin antibody, the stained tissue was observed using a microscope, and the results are shown in FIGS. 2 to 5. […]

BV2 microglia cells = test: BV2 cell NO assay (LPS-induced NO production, Griess reagent); assay type: cell-based; conditions: Mus musculus, BV-2, LPS 1 μg/ml, 24 hours
Description: (§2) After the pretreatment, 0.5 mg/ml of the MTT (Sigma, M2128) reagent was further added thereto. After the cells were cultured in a 5% CO2 incubator, the supernatant was discarded, 150 μl of DMSO was added and was shaken for 30 minutes, and an ELISA micro plate reader (Bio Rad Laboratories Inc., California, USA, Model 680) was used to measure the absorbance at a wavelength of 540 nm. All the experimental values were calculated as an average value of three repeated experimental values of the cell protection rate for the control group, and an experiment of suppressing the NO production for each compound was carried out at a concentration in which no cytotoxicity was shown.
(§3) After the reaction, an ELISA micro plate reader (Bio Rad Laboratories Inc., California, USA, Model 680) was used to measure the absorbance at a wavelength of 540 nm. The suppression rate was calculated as a difference in amount of NO produced between the control group and the experimental group, and as shown in the following Table 6 and FIG. 6, Compounds 4, 5, 15, 16, 18, and the like of the present invention were excellent in the effect of suppressing the production of NO, and the effect is also about 5 times to about 9 times better than that of glabridin.

RAW264.7 macrophages = test: RAW264.7 macrophage NO assay (LPS-induced NO production, Griess reagent); assay type: cell-based
Description: as §2, with “pretreatment,” for “pretreatment, 0.5 mg/ml of”, “reagent at a concentration of 0.5 mg/ml” for “reagent”, “incubator for 4 hours,” for “incubator,”
as §3, with “7,” for “6 and FIG. 6,”, “NO.” for “NO, and the effect is also about 5 times to about 9 times better than that of glabridin.”

PTP1B, sequence (P18031 whole entry, species assumed): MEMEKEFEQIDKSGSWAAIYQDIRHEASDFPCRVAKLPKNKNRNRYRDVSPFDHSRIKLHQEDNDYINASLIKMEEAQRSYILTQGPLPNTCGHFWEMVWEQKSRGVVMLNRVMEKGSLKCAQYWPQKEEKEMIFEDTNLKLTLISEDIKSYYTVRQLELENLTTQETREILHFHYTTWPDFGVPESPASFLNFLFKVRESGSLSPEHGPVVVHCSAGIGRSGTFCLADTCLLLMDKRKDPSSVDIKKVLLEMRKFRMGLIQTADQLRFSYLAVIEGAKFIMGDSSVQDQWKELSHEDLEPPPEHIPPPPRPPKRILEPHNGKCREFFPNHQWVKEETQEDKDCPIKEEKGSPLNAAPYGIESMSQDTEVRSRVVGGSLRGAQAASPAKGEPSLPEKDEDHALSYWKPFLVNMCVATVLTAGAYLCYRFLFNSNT

## CCCOc1ccc(C2COc3c(ccc4c3CCC(C)(C)O4)C2)c(O)c1 (stereo not drawn) [Compound 16, 3-(2-hydroxy-4-propoxyphenyl)-8,8-dimethyl-2,3,4,8,9,10-hexahydropyrano [2,3-f] chromene]
PTP1B
  IC50: 1900 nM
DIO mice
  inhibition in vivo at 150 mg/kg: 7%
db/db mice [1]; 4 weeks after administration, 300 mg/kg oral once daily
  HbA1c (%) 4 weeks: 6.7%
db/db mice [1]; 6 weeks after administration, 300 mg/kg oral once daily
  HbA1c (%) 6 weeks: 6.2%
db/db mice [1]; before administration, 300 mg/kg group
  HbA1c (%) Before administration: 4.7%
db/db mice [2]
  liver tissue observation by microscope: small and compact adipocytes
BV2 microglia cells
  IC50: 2300 nM
RAW264.7 macrophages; Mus musculus, RAW264.7, NO production, LPS 1 μg/ml, 24 hours
  IC50: 4400 nM
RAW264.7 macrophages; RAW264.7 macrophages, in words
  effect of suppressing the production of NO: excellent
